Data taken from US20120190666A1, “Heteroaryl Compounds as PIKK Inhibitors” (Amgen Inc., priority 2009, published 2012).

Molecular target: T1, PI3Kα (Homo sapiens, UniProt P42336)
T1 construct: Full length p110 subunits of PI3K α, β and δ, N-terminally labeled with polyHis tag; polyHis (N); made in house; host or cells: Sf9 insect cells (baculovirus)
Experiment: In vitro PI3K AlphaScreen assay, PI3Kα
Assay type: biochemical
Settings: PI(4,5)P2 substrate, 20 minutes at room temperature, read-out: P13Kalpha IC50 um
How it was run: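 PI3Kα at 1.6 nM (2× stock) with PI(4,5)P2 10 μM and ATP 20 μM (2× stocks) in Tris pH 7, MgCl2, cholate, NaCl, DTT; 20 min at room temperature. Quenched with biotin-IP4/streptavidin-Donor beads, then GST-PIP3-binding protein/anti-GST Acceptor beads, 1.5 h dark; PIP3 formation read as loss of AlphaScreen signal.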

T1 sequence (P42336 whole entry): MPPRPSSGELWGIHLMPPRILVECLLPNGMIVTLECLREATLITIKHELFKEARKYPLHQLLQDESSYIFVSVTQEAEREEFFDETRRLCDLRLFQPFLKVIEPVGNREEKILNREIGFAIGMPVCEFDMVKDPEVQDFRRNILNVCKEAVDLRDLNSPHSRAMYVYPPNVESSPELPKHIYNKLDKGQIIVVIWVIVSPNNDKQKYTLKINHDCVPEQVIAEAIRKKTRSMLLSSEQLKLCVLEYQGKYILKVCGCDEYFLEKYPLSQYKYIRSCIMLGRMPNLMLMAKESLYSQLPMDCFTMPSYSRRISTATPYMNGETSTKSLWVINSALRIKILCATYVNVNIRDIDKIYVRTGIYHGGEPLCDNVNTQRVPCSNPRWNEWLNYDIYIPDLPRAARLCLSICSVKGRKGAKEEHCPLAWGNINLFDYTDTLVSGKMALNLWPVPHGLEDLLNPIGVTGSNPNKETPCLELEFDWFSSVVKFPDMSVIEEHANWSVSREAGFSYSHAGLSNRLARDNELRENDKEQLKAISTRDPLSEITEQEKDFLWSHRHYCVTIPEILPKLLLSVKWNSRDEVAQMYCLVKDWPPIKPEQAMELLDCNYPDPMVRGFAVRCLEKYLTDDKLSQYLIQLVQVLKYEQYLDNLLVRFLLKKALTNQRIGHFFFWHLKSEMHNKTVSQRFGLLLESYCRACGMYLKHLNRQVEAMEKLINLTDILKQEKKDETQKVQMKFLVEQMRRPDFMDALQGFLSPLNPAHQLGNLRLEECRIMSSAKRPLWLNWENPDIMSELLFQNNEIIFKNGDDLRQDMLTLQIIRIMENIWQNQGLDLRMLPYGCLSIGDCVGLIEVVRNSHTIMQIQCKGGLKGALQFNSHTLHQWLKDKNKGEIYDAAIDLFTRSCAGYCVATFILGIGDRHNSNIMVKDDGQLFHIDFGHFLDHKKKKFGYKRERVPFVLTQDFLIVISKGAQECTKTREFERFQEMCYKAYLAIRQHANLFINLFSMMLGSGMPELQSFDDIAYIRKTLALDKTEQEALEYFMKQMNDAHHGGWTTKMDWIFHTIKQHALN
T1 sequence (P27986 whole entry partner): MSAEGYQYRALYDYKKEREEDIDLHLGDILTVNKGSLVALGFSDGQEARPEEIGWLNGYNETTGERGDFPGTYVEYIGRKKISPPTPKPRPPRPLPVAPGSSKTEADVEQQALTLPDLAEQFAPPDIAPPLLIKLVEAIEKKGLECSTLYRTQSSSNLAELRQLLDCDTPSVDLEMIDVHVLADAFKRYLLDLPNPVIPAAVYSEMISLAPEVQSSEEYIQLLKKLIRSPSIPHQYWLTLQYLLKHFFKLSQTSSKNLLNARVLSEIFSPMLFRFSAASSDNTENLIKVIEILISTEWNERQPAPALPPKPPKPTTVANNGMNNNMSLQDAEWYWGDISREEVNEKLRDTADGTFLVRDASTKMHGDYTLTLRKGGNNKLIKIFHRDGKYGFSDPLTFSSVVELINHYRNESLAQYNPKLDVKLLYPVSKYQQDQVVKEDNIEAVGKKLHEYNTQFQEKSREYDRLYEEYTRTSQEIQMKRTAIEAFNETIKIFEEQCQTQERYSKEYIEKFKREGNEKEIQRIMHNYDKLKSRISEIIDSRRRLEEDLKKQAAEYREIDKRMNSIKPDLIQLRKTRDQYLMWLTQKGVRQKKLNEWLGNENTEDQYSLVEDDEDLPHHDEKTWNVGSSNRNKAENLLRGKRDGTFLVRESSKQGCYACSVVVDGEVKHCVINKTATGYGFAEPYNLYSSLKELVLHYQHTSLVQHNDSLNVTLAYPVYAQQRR

| Structure (SMILES) | IC50 |
| --- | --- |
| Cc1nc(N)cc(-c2c(Nc3ccn(C(=O)Nc4ccccc4C(F)(F)F)n3)nc3cccnn23)n1 [Cpd 239, 3-((3-(6-amino-2-methyl-4-pyrimidinyl)imidazo[1,2-b]pyridazin-2-yl)amino)-N-(2-(trifluoromethyl)phenyl)-1H-pyrazole-1-carboxamide] | 3010 nM |
| Cc1nc(N)cc(-c2c(Nc3ccn(C(=O)Nc4cc(F)cc(F)c4)n3)nc3cccnn23)n1 [Cpd 242, 3-((3-(6-amino-2-methyl-4-pyrimidinyl)imidazo[1,2-b]pyridazin-2-yl)amino)-N-(3,5-difluorophenyl)-1H-pyrazole-1-carboxamide] | 2320 nM |
| Cc1nc(N)cc(-c2c(Nc3ccnn3C(=O)N3CCC3)nc3cccnn23)n1 [Cpd 257, 3-(6-amino-2-methyl-4-pyrimidinyl)-N-(1-(1-azetidinylcarbonyl)-1H-pyrazol-5-yl)imidazo[1,2-b]pyridazin-2-amine] | 46500 nM |
| COc1ccc(-c2ccc3nc(Nc4ccn[nH]4)c(-c4nc(C)nc(N)n4)n3c2)cc1CO [Cpd 286] | 130 nM |
| Cc1nc(N)nc(-c2c(Nc3ccn[nH]3)nc3ccc(CCC(O)CO)cn23)n1 (centres unmarked) [Cpd 291, 4-(3-(4-amino-6-methyl-1,3,5-triazin-2-yl)-2-(1H-pyrazol-5-ylamino)-midazo[1,2-a]pyridin-6-yl)-1,2-butanediol] | 170 nM |
| Cc1nc(N)nc(-c2c(Nc3cc[nH]n3)nc3ccc(-c4ccc(S(C)(=O)=O)cc4)cn23)n1 [Cpd 344, 3-(4-amino-6-methyl-1,3,5-triazin-2-yl)-6-(4-(methylsulfonyl)phenyl)-N-1H-pyrazol-3-ylimidazo[1,2-a]pyridin-2-amine] | 70 nM |
| CNS(=O)(=O)c1ccc(-c2ccc3nc(Nc4cc[nH]n4)c(-c4nc(C)nc(N)n4)n3c2)cc1 [Cpd 351, 4-(3-(4-amino-6-methyl-1,3,5-triazin-2-yl)-2-(1H-pyrazol-3-ylamino)imidazo[1,2-a]pyridin-6-yl)-N-methylbenzenesulfonamide] | 480 nM |
| Cc1nc(N)nc(-c2c(Nc3ccn(C)n3)nc3ccc(-c4ccc(S(C)(=O)=O)cc4)cn23)n1 [Cpd 354] | 770 nM |
